# According to patent US20230062100A1, “SUBSTITUTED AMINOQUINOLONES AS DGKALPHA INHIBITORS FOR IMMUNE ACTIVATION” (Bayer Aktiengesellschaft, priority 2019, published 2023):
# Biological target: DGKα (Homo sapiens, UniProt P23743)
# Experiment: Human DGKα kinase activity inhibition assay (ADP-Glo)
# Type: biochemical
# Conditions: in vitro human DGKα kinase activity inhibition assay
# Protocol: Human DGKα inhibitory activity of compounds of the present invention was quantified employing the human DGKα kinase activity assay as described in the following paragraphs. In essence, the enzyme activity was measured by quantification of the adenosine-di-phosphate (ADP) generated as a co-product of the enzyme reaction via the “ADP-Glo™ Kinase Assay” kit from the company Promega. This detection system works as follows: In a first step the ATP not consumed in the kinase reaction is quantitatively converted to cAMP employing an adenylate cyclase (“ADP-Glo-reagent”), then the adenylate cyclase is stopped and the ADP generated in the kinase reaction converted to ATP, which subsequently generates in a luciferase-based reaction a glow-luminescence signal (“Kinase Detection Reagent”). C-terminally FLAG-tagged, recombinant full-length human DGKα (expressed in baculovirus infected insect cells, purified using anti-Flag pulldown and size exclusion chromatography as described below, DGKα_hu_1) was used as enzyme. As substrate for the kinase 1,2-dioleoyl-sn-glycerol, reconstituted in octyl-β-D-glucopyranoside micelles, was used. For the preparation of the micelles, 1 volume of a 16.1 mM solution of 1,2-dioleoyl-sn-glycerol (Avanti, Cat. #O8001-25G) in chloroform was slowly evaporated using a nitrogen stream. Subsequently, 22.55 volumes of a 510 mM solution of octyl-β-D-glucopyranoside (Sigma-Aldrich, Cat. #O8001-10G) in 50 mM MOPS buffer (pH 7.4) were added, and the mixture was sonicated in an ultrasonic bath for 20 s. Then 35 volumes of 50 mM MOPS buffer (pH 7.4) were added to yield a solution of 0.28 mM 1,2 dioleoyl-sn-glycerol and 200 mM octyl-β-D-glucopyranoside, which was aliquoted, flash-frozen in liquid nitrogen, and stored at −20° C. until use. For each experiment, a fresh aliquot was quickly thawed and diluted 24-fold with aqueous assay buffer (described below) containing 95.7 μM adenosine triphosphate (Promega) to yield a 1.67-fold concentrated substrate solution. For the assay 50 nl of a 100-fold concentrated solution of the test compound in dimethyl sulfoxide (DMSO, Sigma) was pipetted into either a white 1536-well or a white low-volume 384-well microtiter plate (both Greiner Bio-One, Frickenhausen, Germany). […] The concentration of DGK a was adjusted depending of the activity of the enzyme lot and was chosen appropriate to have the assay in the linear range, a typical concentration is about 0.1 nM. The reaction was stopped by the addition of 2.5 μl of “ADP-Glo-reagent” (1 to 1.5 diluted with water) and the resulting mixture was incubated at 22° C. for 1 h to convert the ATP not consumed in the kinase reaction completely to cAMP. […] The amount of emitted light was taken as a measure for the amount of ADP generated and thereby for the activity of the DGKα.
# Sequence of DGKα (P23743 with tags, fused parts or gaps): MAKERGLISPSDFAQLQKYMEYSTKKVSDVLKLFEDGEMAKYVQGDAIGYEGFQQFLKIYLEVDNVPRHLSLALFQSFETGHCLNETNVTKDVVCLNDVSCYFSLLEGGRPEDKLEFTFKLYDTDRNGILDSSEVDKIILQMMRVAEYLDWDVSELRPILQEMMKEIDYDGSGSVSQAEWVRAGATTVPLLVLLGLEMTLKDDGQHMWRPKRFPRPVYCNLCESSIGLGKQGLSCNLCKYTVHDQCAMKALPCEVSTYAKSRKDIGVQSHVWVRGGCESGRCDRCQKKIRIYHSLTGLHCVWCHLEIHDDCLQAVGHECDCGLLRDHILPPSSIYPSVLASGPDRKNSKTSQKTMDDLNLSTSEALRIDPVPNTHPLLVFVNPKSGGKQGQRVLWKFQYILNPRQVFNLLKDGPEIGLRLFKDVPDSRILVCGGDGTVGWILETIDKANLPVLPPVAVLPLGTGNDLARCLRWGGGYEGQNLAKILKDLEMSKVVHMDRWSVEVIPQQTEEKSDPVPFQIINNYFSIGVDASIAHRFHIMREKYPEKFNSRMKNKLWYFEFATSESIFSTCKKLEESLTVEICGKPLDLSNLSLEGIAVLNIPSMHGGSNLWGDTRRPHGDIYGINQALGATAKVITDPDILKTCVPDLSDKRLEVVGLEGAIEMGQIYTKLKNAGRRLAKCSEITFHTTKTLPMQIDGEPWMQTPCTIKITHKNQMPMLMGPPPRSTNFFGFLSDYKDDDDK
row,SMILES,IC50 [nM]
1,"COc1cc(C)ccc1OC1CCN(c2c(C(N)=O)c(=O)n(C)c3ccc(C)cc23)CC1 [Example 161, 4-[4-(2-methoxy-4-methylphenoxy)piperidin-1-yl]-1,6-dimethyl-2-oxo-1,2-dihydroquinoline-3-carboxamide]",21
2,"Cn1c(=O)c(C#N)c(N2CCC(Oc3ccc(Br)cc3)CC2)c2ccccc21 [Example 8, 4-[4-(4-bromophenoxy)piperidin-1-yl]-1-methyl-2-oxo-1,2-dihydroquinoline-3-carbonitrile]",13
3,"Cn1c(=O)c(C#N)c(N2CCC(C)(Oc3ccc(Br)cc3)CC2)c2ccccc21 [Example 42, 4-[4-(4-bromophenoxy)-4-methylpiperidin-1-yl]-1-methyl-2-oxo-1,2-dihydroquinoline-3-carbonitrile]",27
4,"Cc1cc(Br)c2c(c1)c(N1CCC(Oc3cccc(Cl)c3)CC1)c(C#N)c(=O)n2C [Example 169, 8-bromo-4-[4-(3-chlorophenoxy)piperidin-1-yl]-1,6-dimethyl-2-oxo-1,2-dihydroquinoline-3-carbonitrile]",2530
5,"Cn1c(=O)c(C#N)c(N2CCC(Oc3ccc(OC(F)(F)F)cc3)CC2)c2cc(F)ccc21 [Example 166, 6-fluoro-1-methyl-2-oxo-4-{4-[4-(trifluoromethoxy)phenoxy]piperidin-1-yl}-1,2-dihydroquinoline-3-carbonitrile]",0.97
6,"Cn1c(=O)c(C#N)c(N2CCC(Oc3ccc(N=S(C)(C)=O)cc3)CC2)c2ccccc21 [Example 30, 4-[4-(4-{[dimethyl(oxo)-λ^6-sulfanylidene]amino}phenoxy)piperidin-1-yl]-1-methyl-2-oxo-1,2-dihydroquinoline-3-carbonitrile]",1530
7,"Cn1c(=O)c(C#N)c(N2CCC(Oc3ccc(OC(F)(F)F)cc3)CC2)c2cccc(Br)c21 [Example 130, 8-bromo-1-methyl-2-oxo-4-{4-[4-(trifluoromethoxy)phenoxy]piperidin-1-yl}-1,2-dihydroquinoline-3-carbonitrile]",202
8,"Cc1ccc2c(c1)c(N1CCC(Oc3ccc(OC(F)(F)F)cc3)CC1)c(C(N)=O)c(=O)n2C [Example 160, 1,6-dimethyl-2-oxo-4-{4-[4-(trifluoromethoxy)phenoxy]piperidin-1-yl}-1,2-dihydroquinoline-3-carboxamide]",3.1
9,"Cn1c(=O)c(C#N)c(N2CCC(Cc3ccccc3)CC2)c2ccccc21 [Example 91, 4-(4-benzylpiperidin-1-yl)-1-methyl-2-oxo-1,2-dihydroquinoline-3-carbonitrile]",4.5
10,"Cn1c(=O)c(C(N)=O)c(N2CCC(OCc3ccccc3)CC2)c2ccccc21 [Example 121, 4-[4-(benzyloxy)piperidin-1-yl]-1-methyl-2-oxo-1,2-dihydroquinoline-3-carboxamide]",16
11,"Cn1c(=O)c(C#N)c(N2CCC(Oc3ccc(OC(F)(F)F)cc3)CC2)c2cccc(F)c21 [Example 129, 8-fluoro-1-methyl-2-oxo-4-{4-[4-(trifluoromethoxy)phenoxy]piperidin-1-yl}-1,2-dihydroquinoline-3-carbonitrile]",29
12,"Cn1c(=O)c(C#N)c(N2CCC(Oc3ccccc3)CC2)c2ccc(OC3CC3)cc21 [Example 70, 7-(cyclopropyloxy)-1-methyl-2-oxo-4-(4-phenoxypiperidin-1-yl)-1,2-dihydroquinoline-3-carbonitrile]",17
13,"Cn1c(=O)c(C#N)c(N2CCC(Oc3ccccc3Cl)CC2)c2ccccc21 [Example 16, 4-[4-(2-chlorophenoxy)piperidin-1-yl]-1-methyl-2-oxo-1,2-dihydroquinoline-3-carbonitrile]",33

# Further compounds by falling IC50, results first:
row,IC50 [nM],SMILES
1,129,"CN1CCN(c2ccc(OC3CCN(c4c(C#N)c(=O)n(C)c5ccccc45)CC3)cc2)C1=O [Example 22, 1-methyl-4-{4-[4-(3-methyl-2-oxoimidazolidin-1-yl)phenoxy]piperidin-1-yl}-2-oxo-1,2-dihydroquinoline-3-carbonitrile]"
2,81,"Cn1c(=O)c(C#N)c(N2CCC(Oc3ccc(N4CCOCC4)cc3)CC2)c2ccccc21 [Example 20, 1-methyl-4-{4-[4-(morpholin-4-yl)phenoxy]piperidin-1-yl}-2-oxo-1,2-dihydroquinoline-3-carbonitrile]"
3,73,"Cn1c(=O)c(C#N)c(N2CCC(Oc3ccc(F)cc3)CC2)c2cc(C3CC3)ccc21 [Example 148, 6-cyclopropyl-4-[4-(4-fluorophenoxy)piperidin-1-yl]-1-methyl-2-oxo-1,2-dihydroquinoline-3-carbonitrile]"
4,64,"Cn1c(=O)c(C#N)c(N2CCC(Oc3ccc(-n4ccnc4)cc3)CC2)c2ccccc21 [Example 19, 4-{4-[4-(1H-imidazol-1-yl)phenoxy]piperidin-1-yl}-1-methyl-2-oxo-1,2-dihydroquinoline-3-carbonitrile]"
5,51,"Cn1c(=O)c(C#N)c(N2CCC(COc3ccccc3Cl)CC2)c2ccccc21 [Example 120, 4-{4-[(2-chlorophenoxy)methyl]piperidin-1-yl}-1-methyl-2-oxo-1,2-dihydroquinoline-3-carbonitrile]"
6,39,"Cn1c(=O)c(C#N)c(N2CCC(Cc3nc4ccccc4s3)CC2)c2ccccc21 [Example 93, 4-{4-[(1,3-benzothiazol-2-yl)methyl]piperidin-1-yl}-1-methyl-2-oxo-1,2-dihydroquinoline-3-carbonitrile]"
7,18,"Cn1c(=O)c(C#N)c(N2CCC(Oc3cccc(OC(F)(F)F)c3)CC2)c2ccccc21 [Example 38, 1-methyl-2-oxo-4-{4-[3-(trifluoromethoxy)phenoxy]piperidin-1-yl}-1,2-dihydroquinoline-3-carbonitrile]"
8,14,"Cc1cccc(COC2CCN(c3c(C(N)=O)c(=O)n(C)c4ccccc34)CC2)c1 [Example 123, 1-methyl-4-{4-[(3-methylphenyl)methoxy]piperidin-1-yl}-2-oxo-1,2-dihydroquinoline-3-carboxamide]"
9,14,"Cn1c(=O)c(C#N)c(N2CCC(Sc3ccccc3)CC2)c2ccc(N3CCCC3=O)cc21 [Example 83, 1-methyl-2-oxo-7-(2-oxopyrrolidin-1-yl)-4-[4-(phenylsulfanyl)piperidin-1-yl]-1,2-dihydroquinoline-3-carbonitrile]"
10,10,"CC(OC1CCN(c2c(C#N)c(=O)n(C)c3ccccc23)CC1)c1ccccc1 (racemic) [Example 112, (rac)-1-methyl-2-oxo-4-[4-(1-phenylethoxy)piperidin-1-yl]-1,2-dihydroquinoline-3-carbonitrile]"
11,8.3,"Cn1c(=O)c(C#N)c(N2CCCC(Oc3ccc(OC(F)(F)F)cc3)CC2)c2ccccc21 (racemic) [Example 100, (rac)-1-methyl-2-oxo-4-{4-[4-(trifluoromethoxy)phenoxy]azepan-1-yl}-1,2-dihydroquinoline-3-carbonitrile]"
12,6.4,"Cc1ccc2c(N3CCC(Oc4ccc(OC(F)(F)F)cc4)CC3)c(C#N)c(=O)n(C)c2c1 [Example 67, 1,7-dimethyl-2-oxo-4-{4-[4-(trifluoromethoxy)phenoxy]piperidin-1-yl}-1,2-dihydroquinoline-3-carbonitrile]"
13,6.2,"Cc1cccc(OC2CCN(c3c(C#N)c(=O)n(C)c4ccccc34)CC2)c1 [Example 3, 1-methyl-4-[4-(3-methylphenoxy)piperidin-1-yl]-2-oxo-1,2-dihydroquinoline-3-carbonitrile]"
14,4.8,"Cn1c(=O)c(C#N)c(N2CCC(OCc3ccccc3F)CC2)c2ccccc21 [Example 111, 4-{4-[(2-fluorophenyl)methoxy]piperidin-1-yl}-1-methyl-2-oxo-1,2-dihydroquinoline-3-carbonitrile]"
15,4.4,"Cn1c(=O)c(C#N)c(N2CCC(Oc3ccc(OC(F)(F)F)cc3)CC2)c2cc(C#N)ccc21 [Example 145, 1-methyl-2-oxo-4-{4-[4-(trifluoromethoxy)phenoxy]piperidin-1-yl}-1,2-dihydroquinoline-3,6-dicarbonitrile]"
16,1.9,"Cn1c(=O)c(C(N)=O)c(N2CCC(Oc3ccc(OC(F)(F)F)cc3)CC2)c2ccc(Cl)cc21 [Example 98, 7-chloro-1-methyl-2-oxo-4-{4-[4-(trifluoromethoxy)phenoxy]piperidin-1-yl}-1,2-dihydroquinoline-3-carboxamide]"
17,1.2,"Cn1c(=O)c(C(N)=O)c(N2CCC(Oc3ccc(OC(F)(F)F)cc3)CC2)c2ccc(F)cc21 [Example 99, 7-fluoro-1-methyl-2-oxo-4-{4-[4-(trifluoromethoxy)phenoxy]piperidin-1-yl}-1,2-dihydroquinoline-3-carboxamide]"
